Experimental data from patent US4740501A (priority 1985, dated 1988).
Read-outs that look alike come from different tables or passages of the source.

Tests used:
Assay type in all cases: cell-based
[1] = tested on: L1210S; experiment: cells; details: read-out: T.C.D.50
[2] = tested on: L1210 MTX; experiment: MTX and cisplatin cross-resistance test, 24 hour exposure
[3] = tested on: L1210DDP; experiment: cells

Compound	IC50 [1] [nM]	resistance of L1210 MTX compared to L1210S [2] [times]	IC50 ([2]; Mus musculus, L1210 MTX, characterisation of resistant line, read-out: T.C.D.50) [nM]	IC50 ([1]; parental L1210S) [nM]	resistance of L1210DDP compared to L1210S [3] [fold]	IC50 ([3]; read-out: T.C.D.50) [nM]
CN(Cc1cnc2nc(N)nc(N)c2n1)c1ccc(C(=O)N[C@@H](CCC(=O)O)C(=O)O)cc1 [MTX, methotrexate, reference compound]	5	100	500	–	–	–
N.N.[Cl][Pt][Cl] [cisplatin, cis-diamminedichloroplatinum (II), reference compound]	–	–	–	1500	20	30000
